Laboratory results from ChEMBL document CHEMBL2016493, “Design, synthesis, synergistic antimicrobial activity and cytotoxicity of 4-aryl substituted 3,4-dihydropyrimidinones of curcumin” (Bioorg Med Chem Lett, 2012).
Activity calls are given as the source filed them. No cut-off for these calls is given here.

Legend:
Escherichia coli [1] = assay: Antibacterial activity against Escherichia coli ATCC 35218 at 160 uM/ml after 24 hrs by kirby-bauer method; type: functional
[2] = test system: Burkholderia pseudomallei; assay: Antibacterial activity against Burkholderia pseudomallei NTCC 10274 at 160 uM/ml after 24 hrs by kirby-bauer method; type: functional; conditions: NTCC 10274, 24 h, read-out: IZ
[3] = test system: Burkholderia pseudomallei; assay: Antibacterial activity against Burkholderia pseudomallei NTCC 10274 at 80 uM/ml after 24 hrs by kirby-bauer method; type: functional; conditions: NTCC 10274, 24 h, read-out: IZ
[4] = test system: Burkholderia pseudomallei; assay: Antibacterial activity against Burkholderia pseudomallei NTCC 10274 at 40 uM/ml after 24 hrs by kirby-bauer method; type: functional
[5] = test system: Burkholderia pseudomallei; assay: Antibacterial activity against Burkholderia pseudomallei NTCC 10274 at 20 uM/ml after 24 hrs by kirby-bauer method; type: functional
Pseudomonas aeruginosa [6] = assay: Antibacterial activity against Pseudomonas aeruginosa ATCC 15499 at 160 uM/ml after 24 hrs by kirby-bauer method; type: functional; conditions: ATCC 15499, 24 h, read-out: IZ
Pseudomonas aeruginosa [7] = assay: Antibacterial activity against Pseudomonas aeruginosa ATCC 15499 at 80 uM/ml after 24 hrs by kirby-bauer method; type: functional; conditions: ATCC 15499, 24 h, read-out: IZ
Pseudomonas aeruginosa [8] = assay: Antibacterial activity against Pseudomonas aeruginosa ATCC 15499 at 40 uM/ml after 24 hrs by kirby-bauer method; type: functional
Pseudomonas aeruginosa [9] = assay: Antibacterial activity against Pseudomonas aeruginosa ATCC 15499 at 20 uM/ml after 24 hrs by kirby-bauer method; type: functional
Salmonella typhimurium [10] = assay: Antibacterial activity against Salmonella typhimurium ATCC 23564 at 160 uM/ml after 24 hrs by kirby-bauer method; type: functional, Salmonella enterica subsp. enterica serovar Typhimurium; conditions: Salmonella enterica, ATCC 23564, 24 h; read-out: IZ
Salmonella typhimurium [11] = assay: Antibacterial activity against Salmonella typhimurium ATCC 23564 at 80 uM/ml after 24 hrs by kirby-bauer method; type: functional
Salmonella typhimurium [12] = assay: Antibacterial activity against Salmonella typhimurium ATCC 23564 at 40 uM/ml after 24 hrs by kirby-bauer method; type: functional
Salmonella typhimurium [13] = assay: Antibacterial activity against Salmonella typhimurium ATCC 23564 at 20 uM/ml after 24 hrs by kirby-bauer method; type: functional
Staphylococcus aureus [14] = assay: Antibacterial activity against Staphylococcus aureus ATCC 11632 at 160 uM/ml after 24 hrs by kirby-bauer method; type: functional; conditions: ATCC 11632, 24 h, read-out: IZ
Staphylococcus aureus [15] = assay: Antibacterial activity against Staphylococcus aureus ATCC 11632 at 80 uM/ml after 24 hrs by kirby-bauer method; type: functional; conditions: ATCC 11632, 24 h, read-out: IZ
Staphylococcus aureus [16] = assay: Antibacterial activity against Staphylococcus aureus ATCC 11632 at 40 uM/ml after 24 hrs by kirby-bauer method; type: functional
Staphylococcus aureus [17] = assay: Antibacterial activity against Staphylococcus aureus ATCC 11632 at 20 uM/ml after 24 hrs by kirby-bauer method; type: functional
Aspergillus niger [18] = assay: Antifungal activity against Aspergillus niger MTCC 1108 at 160 uM/ml after 48 hrs by paper disc diffusion method; type: functional; conditions: MTCC 1108, 48 h, read-out: IZ
Aspergillus niger [19] = assay: Antifungal activity against Aspergillus niger MTCC 1108 at 80 uM/ml after 48 hrs by paper disc diffusion method; type: functional; conditions: MTCC 1108, 48 h, read-out: IZ
Aspergillus niger [20] = assay: Antifungal activity against Aspergillus niger MTCC 1108 at 40 uM/ml after 48 hrs by paper disc diffusion method; type: functional
Aspergillus niger [21] = assay: Antifungal activity against Aspergillus niger MTCC 1108 at 20 uM/ml after 48 hrs by paper disc diffusion method; type: functional
Aspergillus flavus [22] = assay: Antifungal activity against Aspergillus flavus MTCC 1021 at 160 uM/ml after 48 hrs by paper disc diffusion method; type: functional; conditions: MTCC 1021, 48 h, read-out: IZ
Aspergillus flavus [23] = assay: Antifungal activity against Aspergillus flavus MTCC 1021 at 80 uM/ml after 48 hrs by paper disc diffusion method; type: functional
Aspergillus flavus [24] = assay: Antifungal activity against Aspergillus flavus MTCC 1021 at 40 uM/ml after 48 hrs by paper disc diffusion method; type: functional
Aspergillus flavus [25] = assay: Antifungal activity against Aspergillus flavus MTCC 1021 at 20 uM/ml after 48 hrs by paper disc diffusion method; type: functional
Curvularia lunata [26] = assay: Antifungal activity against Curvularia lunata MTCC 581 at 160 uM/ml after 48 hrs by paper disc diffusion method; type: functional; conditions: MTCC 581, 48 h, read-out: IZ
Curvularia lunata [27] = assay: Antifungal activity against Curvularia lunata MTCC 581 at 80 uM/ml after 48 hrs by paper disc diffusion method; type: functional; conditions: MTCC 581, 48 h, read-out: IZ
Curvularia lunata [28] = assay: Antifungal activity against Curvularia lunata MTCC 581 at 40 uM/ml after 48 hrs by paper disc diffusion method; type: functional; conditions: MTCC 581, 48 h, read-out: IZ
Curvularia lunata [29] = assay: Antifungal activity against Curvularia lunata MTCC 581 at 20 uM/ml after 48 hrs by paper disc diffusion method; type: functional; conditions: MTCC 581, 48 h, read-out: IZ
Trichoderma viride [30] = assay: Antifungal activity against Trichoderma viride MTCC 1107 at 160 uM/ml after 48 hrs by paper disc diffusion method; type: functional; conditions: MTCC 1107, 48 h, read-out: IZ
Trichoderma viride [31] = assay: Antifungal activity against Trichoderma viride MTCC 1107 at 80 uM/ml after 48 hrs by paper disc diffusion method; type: functional; conditions: MTCC 1107, 48 h, read-out: IZ
Trichoderma viride [32] = assay: Antifungal activity against Trichoderma viride MTCC 1107 at 40 uM/ml after 48 hrs by paper disc diffusion method; type: functional; conditions: MTCC 1107, 48 h, read-out: IZ
Trichoderma viride [33] = assay: Antifungal activity against Trichoderma viride MTCC 1107 at 20 uM/ml after 48 hrs by paper disc diffusion method; type: functional; conditions: MTCC 1107, 48 h, read-out: IZ
QG-56 = assay: Cytotoxicity against human QG56 cells after 48 hrs by MTT assay; type: functional, cell-based
Escherichia coli [34] = assay: Antibacterial activity against Escherichia coli ATCC 35218 at 80 uM/ml after 24 hrs by kirby-bauer method; type: functional; conditions: ATCC 35218, 24 h, read-out: IZ
Escherichia coli [35] = assay: Antibacterial activity against Escherichia coli ATCC 35218 at 40 uM/ml after 24 hrs by kirby-bauer method; type: functional; conditions: ATCC 35218, 24 h, read-out: IZ
Escherichia coli [36] = assay: Antibacterial activity against Escherichia coli ATCC 35218 at 20 uM/ml after 24 hrs by kirby-bauer method; type: functional; conditions: ATCC 35218, 24 h, read-out: IZ
[37] = Salmonella enterica subsp. enterica serovar Typhimurium
[38] = Salmonella enterica, ATCC 23564, 24 h, read-out: IZ

| SMILES | zone of inhibition at 160 µM [2] [mm] | zone of inhibition at 80 µM [3] [mm] | zone of inhibition at 160 µM (Pseudomonas aeruginosa [6]) [mm] | zone of inhibition at 80 µM (Pseudomonas aeruginosa [7]) [mm] | zone of inhibition at 160 µM (Salmonella typhimurium [10]) [mm] | zone of inhibition at 160 µM (Staphylococcus aureus [14]) [mm] | zone of inhibition at 80 µM (Staphylococcus aureus [15]) [mm] | zone of inhibition at 160 µM (Aspergillus niger [18]) [mm] | zone of inhibition at 80 µM (Aspergillus niger [19]) [mm] | inhibition zone (IZ) (Aspergillus niger [21]) | zone of inhibition at 160 µM (Aspergillus flavus [22]) [mm] | inhibition zone (IZ) (Aspergillus flavus [25]) | zone of inhibition at 160 µM (Curvularia lunata [26]) [mm] | zone of inhibition at 80 µM (Curvularia lunata [27]) [mm] | zone of inhibition at 40 µM (Curvularia lunata [28]) [mm] | zone of inhibition at 20 µM (Curvularia lunata [29]) [mm] | zone of inhibition at 160 µM (Trichoderma viride [30]) [mm] | zone of inhibition at 80 µM (Trichoderma viride [31]) [mm] | zone of inhibition (Trichoderma viride [32]) [mm] | zone of inhibition at 20 µM (Trichoderma viride [33]) [mm] | further results |
| --- | --- | --- | --- | --- | --- | --- | --- | --- | --- | --- | --- | --- | --- | --- | --- | --- | --- | --- | --- | --- | --- |
| COc1cc(/C=C/C(=O)C2=C(/C=C/c3ccc(O)c(OC)c3)NC(=S)NC2c2ccc([N+](=O)[O-])cc2)ccc1O (stereo not given) | 11 | 9 | 10 | 9 | 10 | 12 | 10 | 13 | 11 | inactive | 11 | inactive | 21 | 19 | 17 | 14 | 22 | 21 | 18 | 17 | inhibition zone (IZ) (Escherichia coli [1]): inactive; inhibition zone (IZ) [4]: inactive; inhibition zone (IZ) [5]: inactive; inhibition zone (IZ) (Pseudomonas aeruginosa [8]): inactive; inhibition zone (IZ) (Pseudomonas aeruginosa [9]): inactive; inhibition zone (IZ) (Salmonella typhimurium [11]; [37]): inactive; inhibition zone (IZ) (Salmonella typhimurium [12]; [37]): inactive; inhibition zone (IZ) (Salmonella typhimurium [13]; [37]): inactive; inhibition zone (IZ) (Staphylococcus aureus [16]): inactive; inhibition zone (IZ) (Staphylococcus aureus [17]): inactive; zone of inhibition at 40 µM (Aspergillus niger [20]; MTCC 1108, 48 h, read-out: IZ): 9 mm; inhibition zone (IZ) (Aspergillus flavus [23]): inactive; inhibition zone (IZ) (Aspergillus flavus [24]): inactive; IC50 (QG-56): 50 uM/ml; IC50 (HepG2): 50 uM/ml; IC50 (HCT-116): 100 uM/ml |
| COc1cc(/C=C/C(=O)C2=C(/C=C/c3ccc(O)c(OC)c3)NC(=O)NC2c2ccc(O)cc2)ccc1O (stereo not given) | 19 | 15 | 22 | 19 | 18 | 24 | 22 | 11 | 9 | inactive | 13 | inactive | 21 | 20 | 20 | 18 | 16 | 14 | 11 | 9 | zone of inhibition at 160 µM (Escherichia coli [1]; ATCC 35218, 24 h, read-out: IZ): 22 mm; zone of inhibition at 80 µM (Escherichia coli [34]): 18 mm; zone of inhibition at 40 µM (Escherichia coli [35]): 14 mm; zone of inhibition at 20 µM (Escherichia coli [36]): 12 mm; zone of inhibition at 40 µM ([4]; NTCC 10274, 24 h, read-out: IZ): 11 mm; zone of inhibition at 20 µM ([5]; NTCC 10274, 24 h, read-out: IZ): 9 mm; zone of inhibition at 40 µM (Pseudomonas aeruginosa [8]; ATCC 15499, 24 h, read-out: IZ): 19 mm; zone of inhibition at 20 µM (Pseudomonas aeruginosa [9]; ATCC 15499, 24 h, read-out: IZ): 17 mm; zone of inhibition at 80 µM (Salmonella typhimurium [11]; [38]): 16 mm; zone of inhibition at 40 µM (Salmonella typhimurium [12]; [38]): 13 mm; zone of inhibition at 20 µM (Salmonella typhimurium [13]; [38]): 9 mm; zone of inhibition at 40 µM (Staphylococcus aureus [16]; ATCC 11632, 24 h, read-out: IZ): 19 mm; zone of inhibition at 20 µM (Staphylococcus aureus [17]; ATCC 11632, 24 h, read-out: IZ): 16 mm; inhibition zone (IZ) (Aspergillus niger [20]): inactive; zone of inhibition at 80 µM (Aspergillus flavus [23]; MTCC 1021, 48 h, read-out: IZ): 11 mm; zone of inhibition at 40 µM (Aspergillus flavus [24]; MTCC 1021, 48 h, read-out: IZ): 9 mm; IC50 (QG-56): 50 uM/ml; IC50 (HepG2): 25 uM/ml; IC50 (HCT-116): 12.5 uM/ml |
